Legend:
[1] = test system: LN229 gliobastoma cells MGMT+/MMR+; test: Anti-cancer assay, isogenic LN229 cells, nuclei count (Example 43); type: cell-based; conditions: Homo sapiens, LN-229; LN229 MGMT+/MMR+; 120 hours; read-out: MGMT+ MMR+ Activity
[2] = test system: CRO-AP2; test: Cell panel nuclear dye assay; type: cell-based; conditions: Homo sapiens, 120 h, Lymphoma, 5-day incubation
Description: (§1) Cells were grown in RPMI1640, 10% FBS, 2 mM L-alanyl-L-glutamine, 1 mM Na pyruvate, or a special medium. Cells were seeded into 384-well plates and incubated in a humidified atmosphere of 5% CO2 at 37° C. Compound was added the day following cell seeding. At the same time, a time zero untreated cell plate was generated. After a 5-day incubation period, cells were fixed and stained to allow fluorescence imaging of nuclei.
(§2) Compounds were serially diluted in 2-fold steps from the highest test concentration specified, and assayed over 10 concentrations with a maximum assay concentration of 0.1% DMSO. Automated fluorescence microscopy was carried out using a Molecular Devices ImageXpress Micro XL high-content imager, and images were collected with a 4× objective. 16-bit TIFF images were acquired and analyzed with MetaXpress 5.1.0.41 software.
(§3) Cell proliferation was measured by the fluorescence intensity of an incorporated nuclear dye. The output is referred to as the relative cell count, where the measured nuclear intensity is transformed to percent of control (POC) using the following formula: […]
(§4) Cell count IC50 is the test compound concentration at 50% of maximal possible response. EC50 is the test compound concentration at the curve inflection point or half the effective response (parameter C of the fitted curve solution). GI50 is the concentration needed to reduce the observed growth by half (midway between the curve maximum and the time zero value). Activity area is an estimate of the integrated area above the curve. Activity area values range from 0-10, where a value of zero indicates no inhibition of proliferation at all concentrations, and a value of 10 indicates complete inhibition of proliferation at all concentrations. In rare instances, values <0 or >10 may be observed. In these instances, values <0 should be considered as equivalent to 0, whereas values >10 should be considered equivalent to 10.

[3] = test system: Hs 294T; test: Cell panel nuclear dye assay; type: cell-based; conditions: Homo sapiens, 120 h, Melanoma, 5-day incubation
Description: as §1, §2, §3, §4

[4] = test system: SU-DHL-10; test: Cell panel nuclear dye assay; type: cell-based; conditions: Homo sapiens, SU-DHL10, 120 h, Lymphoma (large cell), 5-day incubation
Description: as §1, §2, §3, §4

[5] = test system: SU-DHL-8; test: Cell panel nuclear dye assay; type: cell-based; conditions: Homo sapiens, 120 h, Lymphoma (large cell), 5-day incubation
Description: as §1, §2, §3, §4

[6] = test system: SW1088; test: Cell panel nuclear dye assay; type: cell-based; conditions: Homo sapiens, 120 h, Glioma (astrocytoma), 5-day incubation
Description: as §1, §2, §3, §4

[7] = test system: SaOS2; test: Cell panel nuclear dye assay; type: cell-based; conditions: Homo sapiens, SAOS-2, 120 h, Osteosarcoma, 5-day incubation
Description: as §1, §2, §3, §4

[8] = test system: TUR; test: Cell panel nuclear dye assay; type: cell-based; conditions: 120 h, Lymphoma (histiocytic), 5-day incubation
Description: as §1, §2, §3, §4

[9] = test system: rats; test: Animal model toxicity testing in rats; conditions: tested doses exceeded those at which A1 caused 100% mortality
[10] = test system: dogs; test: Animal model toxicity testing in dogs; conditions: tested doses exceeded those at which A1 caused 100% mortality

## NC(=O)c1ncn2c(=O)n(CCOC(F)(F)F)nnc12 [Compound I-1, 4-Oxo-3-(2-(trifluoromethoxy)ethyl)-3,4-dihydroimidazo[5,1-d][1,2,3,5]tetrazine-8-carboxamide]
[1]
  IC50: > 100 µM
[2]
  EC50: ≤ 30 µM
  IC50: ≤ 30 µM
[3]
  EC50: ≤ 30 µM
  IC50: ≤ 30 µM
[4]
  EC50: ≤ 30 µM
  IC50: 30 to 70 µM
[5]
  EC50: ≤ 30 µM
  IC50: ≤ 30 µM
[6]
  EC50: 70 to 150 µM
  IC50: 70 to 150 µM
[7]
  EC50: ≤ 30 µM
  IC50: ≤ 30 µM
[8]
  EC50: ≤ 30 µM
  IC50: ≤ 30 µM
[9]
  adverse clinical signs: no adverse clinical signs were observed
[10]
  adverse clinical signs: no adverse clinical signs were observed

From US20250066371A1, “FLUOROALKOXYALKYLENE-DIHYDROIMIDAZO[5,1-D]TETRAZINONE COMPOUNDS AND RELATED COMPOUNDS AND THEIR USE IN TREATING MEDICAL CONDITIONS” (priority 2023, published 2025)
